These results are taken from US20100210590A1, “COMPOSITIONS AND TREATMENTS FOR SEIZURE-RELATED DISORDERS” (NORTHWESTERN UNIVERSITY, priority 1995, published 2010).

One data set deals with IL-6. The data set is described as follows: ELISA of hippocampal homogenates after KA-induced seizures on P15: IL-6. The following applies: Mzc 5 mg/kg ip at 3 and 9 hr after KA on P15; 12 hr recovery; mean±SEM. The format is in vivo, rat. As to the method: (§1) Hippocampal homogenates were prepared by sonication in protease inhibitor cocktail (1 μg leupeptin (Sigma, St. Louis, Mo.), 0.001 M 4-dithio-L-threitol (DTT, Sigma), 0.002 M sodium orthovanadate (Sigma) and 0.001 M phenylmethanesulfonyl fluorid (PMSF, FLUKA, Switzerland) in 1 ml PBS). Total protein concentration was measured using commercially available reagents (BCA, Pierce, Rockford, Ill.).
(§2) Levels of IL-1β, IL-6, and TNF-α, were measured in hippocampal homogenates by enzyme linked immunosorbent assay using commercially available plates and reagents (ELISA; MesoScale Discovery, MSD, Gaithersburg, Md.). S100B levels were measured as described (26). Samples were analyzed in duplicates and compared with known concentrations of protein. Plates were analyzed using the SECTOR Imager 2400 (MSD).
(§3) To determine whether suppression of early cytokine increases would prevent long-term glial activation and improve neurobehavioral outcome after early-life seizures, P15 rats were administered Minozac (Mzc). […] Mzc (5 mg/kg) or diluent (saline) was administered via ip injection at 3 and 9 hr following KA injection on P15 (FIG. 7). Control animals were injected an equal volume of saline (Sal). At 12 hr, animals were sacrificed, and tissues were processed for analysis of pro-inflammatory cytokines by ELISA as above.

For data set [1] the following is noted: cited from earlier work.
In data set [2] the test system is S100B. The data set is described as follows: Immunohistochemical quantification of S100B immunoreactive cells in hippocampus (glial activation). Format: in vivo, rat. The following applies: Mzc 5 mg/kg ip at 3 and 9 hr after KA on P15; 30 days recovery; mean±SEM. The protocol: (§4) Immunohistochemical detection of hippocampal markers of glial activation and astrocyte glutamate transporters was performed in five μm paraffin-embedded sections using Vectastain Elite ABC immunodetection kits and diaminobenzidine substrate (DAB) (Vector Laboratories, Burlingame Calif.). The following primary antibodies were used: GFAP (1:1500, mouse monoclonal, Sigma); S100B (1:1500, rabbit polyclonal, DAKO Cytomation, Carpinteria, Calif.); Ibal (1:400, goat polyclonal, Abcam, Cambridge, Mass.); FH (1:400, goat polyclonal, Quidel); β-clusterin (1:100, goat polyclonal, Santa Cruz); GLAST (1:5000 guinea pig polyclonal, Chemicon International, Temecula, Calif.) and GLT-1 (1:5000, guinea pig polyclonal, Chemicon). Control sections were incubated in normal serum or PBS in place of primary antibody. […]
(§5) Sections were examined under brightfield microscopy by two blinded observers (Nikon Eclipse E800). For GFAP, S100B, Ibal, FH, clusterin, GLAST and GLT-1 sections, the CAI, CA2, CA3, DG and PoDG were photographed at 10× magnification, and images were converted to grayscale for quantification of immunoreactive cells. The percentage of positive cells in the hippocampal regions specified was measured by thresholding for dark objects indicative of immunoreactive cells (Metamorph, Universal Imaging Corporation, Sunnyvale, Calif.). […] Changes in the morphology of immunoreactive cells were not assessed. […]

The test system of the next data set is IL-1β. The data set is described as follows: ELISA of hippocampal homogenates after KA-induced seizures on P15: IL-1β. Format: in vivo, rat. Particulars: Mzc 5 mg/kg ip at 3 and 9 hr after KA on P15; 12 hr recovery; mean±SEM. As to the method:
as §1, §2, §3

The test system of the next data set is GFAP. The data set is described as follows: Immunohistochemical quantification of GFAP immunoreactive cells in hippocampus (glial activation). Format: in vivo, rat. Particulars: Mzc 5 mg/kg ip at 3 and 9 hr after KA on P15; 30 days recovery; mean±SEM. The protocol:
as §4, §5

Data set [3] deals with Alzheimer's disease mouse model. Particulars: cited from earlier work.
Data set [4] has as its system S100B. The data set is described as follows: S100B level in hippocampal homogenates after KA-induced seizures on P15. Format: in vivo, rat. The following applies: Mzc 5 mg/kg ip at 3 and 9 hr after KA on P15; 12 hr recovery; mean±SEM. As to the method: as §1, §2, §3
A further data set concerns TNF-α. The experiment in a line: ELISA of hippocampal homogenates after KA-induced seizures on P15: TNF-α. The format is in vivo, rat. Particulars: Mzc 5 mg/kg ip at 3 and 9 hr after KA on P15; 12 hr recovery; mean±SEM. The protocol: as §1, §2, §3
Data set [5] concerns KA-induced seizures on P15. The experiment in a line: Y-maze test of spontaneous alternation after KA-induced early-life seizures. The format is in vivo, rat. The following applies: Mzc 5 mg/kg ip at 3 and 9 hr after KA on P15; after 30 days recovery; mean±SEM. The protocol: On either postnatal day (P)15 or 45, rats were administered either KA (Ocean Produce International, Nova Scotia) or equivalent volume of vehicle, phosphate-buffered saline (PBS, pH 7.4) (2). The dose of KA on P 15 (5 mg/kg) and P45 (15 mg/kg) was based on the age-dependent difference in threshold for KA-induced seizures (22). All injections were intraperitoneal (ip).
The Y-maze test of spontaneous alternation was used to evaluate hippocampus-dependent spatial learning (26, 27). Testing began on P27 when animals were first able to decide between the left or right arm of the maze. Testing was performed by a blinded observer on alternate days until P55. Each animal started in the vertical arm of the Y-maze. If the animal selected a different arm on the second run in the maze, it was scored as alternating. The percent alternation over the duration of testing was calculated for each animal.
To determine whether suppression of early cytokine increases would prevent long-term glial activation and improve neurobehavioral outcome after early-life seizures, P15 rats were administered Minozac (Mzc). […] Mzc (5 mg/kg) or diluent (saline) was administered via ip injection at 3 and 9 hr following KA injection on P15 (FIG. 7). Control animals were injected an equal volume of saline (Sal). […]

Data set [6] in a line: Solubility (logS experimental, aqueous solubility, DMSO). The format is physicochemical.

Each structure is given as a SMILES string. Where a name gives a salt, the structure may show the parent alone.

Turning to `Cc1cc(-c2ccccc2)nnc1N1CCN(c2ncccn2)CC1` [Mzc, 2-(4-(4-methyl-6-phenylpyridazin-3-yl)piperazin-1-yl)pyrimidine dihydrochloride monohydrate], the “IL-6 level in hippocampal brain homogenates” value with IL-6 is given as 103.2±3.8 % control. Also, in [1], the CNS penetration result was “CNS-penetrant”, the bioavailability result is given as “bioavailable”, the toxicity entry is reported as “non-toxic” and the water solubility entry is reported as “water-soluble”. For the same compound, in the data set on S100B [2], the “S100B immunoreactive cells in hippocampus” value worked out at 8.1±0.9 % immuno-positive cells. Also, the “IL-1β level in hippocampal brain homogenates” value with IL-1β is 103.7±4.6 % control. Further, the “GFAP immunoreactive cells in hippocampus” value with GFAP is on record as 20.9±1.8 % immuno-positive cells. For the same compound, in data set [3], the “effect on hippocampal pro-inflammatory cytokine upregulation” value is listed as “inhibits hippocampal pro-inflammatory cytokine upregulation”, the “effect on hippocampal-dependent behavioral deficits” value is listed as “attenuates hippocampal-dependent behavioral deficits” and the “effect on synaptic dysfunction” value is “suppresses synaptic dysfunction”. Moreover, the “S100B level in hippocampal brain homogenates” value with S100B [4] stood at 89.1±9.7 % control. Moreover, the “TNF-α level in hippocampal brain homogenates” value in the data set on TNF-α was 98.5±3.9 % control. Also, the “percent alternation in Y-maze” value in [5] is on record as 79.5±2.5 % alternation.

For `Cc1cc(-c2ccccc2)nnc1N1CCN(c2ncccn2)CC1.Cl.Cl` [2-(4-(4-methyl-6-phenylpyridazin-3-yl)piperazin-1-yl)pyrimidine dihydrochloride salt], in data set [6], the “solubility in DMSO” value is recorded as “soluble in DMSO”.
